Structures can show the parent of a compound that is named as a salt.
Key:
[1] = tested on: SW-480 cell line; test: Growth inhibition in SW-480; assay type: cell-based; conditions: Homo sapiens, SW480
Procedure: (§1) The growth inhibition IC50 value obtained for Compound I was 0.7 μM in the SW-480 cell line. […] This established rodent model of azoxymethane (“AOM”)-induced carcinogenesis was used to assess the effects of Compound I (free base and salt) on colon cancer development in vivo. ACF are precursors to colonic tumors, and ACF inhibition is predictive of chemo-preventive efficacy.

[2] = tested on: aberrant crypt foci (ACF) in colon; test: Azoxymethane-induced aberrant crypt foci model; assay type: in vivo, rat; conditions: for Mean ACF/colon (+ SE): free base, 5 weeks
Procedure: as §1
In the rats in this experiment, ACF initiation was achieved by two consecutive weekly injections of the carcinogen. Compound I was administered one week prior to ACF initiation and for the duration of the experiment. ACFs were scored after 5 weeks of treatment. Compound I was administered orally to male Fisher 344 rats in the rat chow. Daily food consumption (mg/kg body weight) varied over the course of the study, and therefore Compound I dose was expressed a grams per kg of diet to provide a basis of comparison between doses. […] The experimental groups gained less weight than the controls, which was indicative of bioavailability. However, the weight differences were less than 10% and not considered to affect ACF formation.
The free base of Compound I inhibited ACF formation as measured by a reduction of crypts per colon. With the exception of the low dose group (only 0.5 g/kg diet), the differences between treatment and control groups were substantial, and statistically significant in the case of the 1.0 and 2.0 g/kg diet group.

[3] = tested on: SW-480 colon adenocarcinoma cells; test: Apoptosis induction determined by morphology, SW-480; assay type: cell-based, human
From the text: Following treatment with a compound, cultures can be assayed for apoptosis and necrosis by florescent microscopy following labeling with acridine orange and ethidium bromide. The method for measuring apoptotic cell number has previously been described by Duke & Cohen, “Morphological And Biochemical Assays Of Apoptosis,” Current Protocols In Immunology, Coligan et al., eds., 3.17.1-3.17.16 (1992, which is incorporated herein by reference).
For example, floating and attached cells can be collected by trypsinization and washed three times in PBS. Aliquots of cells can be centrifuged. The pellet can then be re-suspended in media and a dye mixture containing acridine orange and ethidium bromide prepared in PBS and mixed gently. The mixture can then be placed on a microscope slide and examined for morphological features of apoptosis.
In addition, the percent apoptosis for Compound I in SW-480 is shown in Table 12 at various drug concentrations.

[4] = tested on: DU145; test: Growth inhibition, neutral red assay, DU145; assay type: cell-based, human; conditions: free base, five days
Procedure: (§2) Compound I's activity is not confined to activity against colon cancer cell lines or animal models of colon cancer. It has a broad range of anti-neoplastic effects in various neoplastic cell lines. Various types of human cancer cell lines were propagated under sterile conditions in RPMI 1640 medium with 10% fetal bovine serum, 2 mM L-glutamine and sodium bicarbonate. To determine growth inhibitory effects of Compound I, cells were seeded in 96-well plates at a density of 1000 cells per well. Twenty-four hours after plating, the cells were dosed with various concentrations of the free base of Compound I solubilized in DMSO (final concentration 0.1%). The effect of the drug on tumor cell growth was determined using the neutral red cytotoxicity assay following five days of continuous treatment. Neutral red is a dye that is selectively taken up by viable cells by an ATP-dependent transport mechanism.

[5] = tested on: MDA-MB-435; test: Growth inhibition, neutral red assay, MDA-MB-435; assay type: cell-based, human; conditions: free base, five days
Procedure: as §2

[6] = tested on: CCRF-CEM; test: Growth inhibition, neutral red assay, CCRF-CEM; assay type: cell-based; conditions: Homo sapiens, HCl salt
Procedure: as §2

[7] = tested on: K-562; test: Growth inhibition, neutral red assay, K-562; assay type: cell-based; conditions: Homo sapiens, K562; HCl salt
Procedure: as §2

[8] = tested on: PANC-1; test: Growth inhibition, neutral red assay, PANC-1; assay type: cell-based; conditions: Homo sapiens, HCl salt
Procedure: as §2

[9] = tested on: β-catenin and PKG levels in SW480 cells; test: Western blot of β-catenin and PKG in SW480; assay type: cell-based, human
Procedure: SW480 cells treated with exisulind as described previously are harvested from the microfuge tubes by rinsing once with ice-cold PBS. The cells are lysed by modified RIPA buffer for 15 minutes with agitation. The cell lysate is spun down in a cold room. The supernatants are transferred to fresh microcentrifuge tubes immediately after spinning. BioRad DC Protein Assay (Temecula, Calif.) is performed to determine the protein concentrations in samples. The samples are normalized for protein concentration, as described above.
50 μg of each sample is loaded to 10% SDS gel. SDS-PAGE is performed, and the proteins then are transferred to a nitrocellulose membrane. The blotted nitrocellulose membrane are blocked in freshly prepared TBST containing 5% nonfat dry milk for one hour at room temperature with constant agitation.
A goat-anti-PKG primary antibody is diluted to the recommended concentration/dilution in fresh TBST/5% nonfat dry milk. The nitrocellulose membrane is placed in the primary antibody solution and incubated one hour at room temperature with agitation. The nitrocellulose membrane is washed three times for ten minutes each with TBST. […]
This observation was made by culturing SW480 cells with either 200, 400 or 600 μM exisulind or vehicle (0.1% DMSO). […] Immuno-reactive protein can be detected by Western blot. […]

CC1=C(CC(=O)NCc2ccccc2)c2cc(F)ccc2/C1=C\c1ccncc1 [Compound I, (Z)-5-fluoro-2-methyl-(4-pyridylidene)-3-(N-benzyl)indenylacetamide hydrochloride]
IC50 [1]: 700 nM | ACF % Control ([2]; 0.5 g/kg diet): 100% | Mean ACF/colon (+ SE) ([2]; 0.5 g/kg diet): 149 ± 14 | ACF % Control ([2]; 1 g/kg diet): 75% | Mean ACF/colon (+ SE) ([2]; 1 g/kg diet): 111 ± 9 | ACF % Control ([2]; 1.5 g/kg diet): 89% | Mean ACF/colon (+ SE) ([2]; 1.5 g/kg diet): 132 ± 4 | ACF % Control ([2]; 2.0 g/kg diet): 72% | Mean ACF/colon (+ SE) ([2]; 2.0 g/kg diet): 107 ± 15 | body weight differences versus controls ([2]; male Fisher 344 rats, drug in chow): less than 10% | % Apoptosis ([3]; 0.35 μM): 16% | % Apoptosis ([3]; 0.7 μM): 27% | % Apoptosis ([3]; 1.5 μM): 88% | GI50 ([4]; Homo sapiens, DU-145, 120 h): 1.6 µM | GI90 μM, DU145 [4]: 2.8 µM | GI50 ([5]; Homo sapiens, MDA-MB-435, 120 h): 1.6 µM | GI90 μM, MDA-MB-435 [5]: 2.3 µM | GI50 [6]: 1.4 µM | GI50 [7]: 1.8 µM | GI50 [8]: 2.2 µM

CC1=C(CC(=O)O)c2cc(F)ccc2/C1=C\c1ccc(S(C)(=O)=O)cc1 [Exisulind, 5-fluoro-2-methyl-1-(p-methylsulfonylbenzylidene)-3-indenylacetic acid]
reduction of expression of β-catenin compared to control ([9]; SW480, 200, 400 or 600 μM, 48 hours, Western blot): 50% | PKG level by Western blot ([9]; SW480, 48 hours): increase of PKG

Source: patent US20030109418A1, “Methods for identifying compounds for inhibition of neoplastic lesions, and pharmaceutical compositions containing such compounds” (priority 1999, published 2003)
